# Assay results published in publication PMC4992173, “Divergent synthesis and identification of the cellular targets of deoxyelephantopins” (Nature Communications, 2016).
# System: proteins enriched from MCF7 cells by probe 24c
# Assay: SILAC competitive profiling with probe 24c in MCF7 lysates, proteome-wide
# Assay type: binding, human
# Conditions: 20 μM deoxyelephantopin, 10 μM 24c, SILAC ratio<0.30
# Text: In our efforts to determine the direct molecular targets of deoxyelephantopin we first performed a gel-based competitive in situ proteomic profiling assay[41] […] While the greater conformational flexibility of probe 24c could potentially lead to more promiscuous target engagement relatively to deoxyelephantopin, it was favoured based on the fact that an alkyne moiety appended to the rigid scaffold of deoxyelephantopin may hinder some of its interactions. MCF7 cells were pretreated with various concentrations of deoxyelephantopin for 4 h, harvested, lysed and the lysates were treated with the fluorogenic probe 24c-Cy3 (10 μM; Supplementary Fig. 10). […] Furthermore, cells were pretreated with 20 μM concentration of deoxyelephantopin or 24c and the proteomic profiles were compared (Fig. 6b, Supplementary Fig. 11). Multiple bands were detected that were equally competed by both DEP and 24c, thus again confirming that 24c can be used as an acceptable clickable analogue of deoxyelephantopin in pulldown assays. Having established the optimal labelling conditions by SDS–PAGE, we next carried out a mass spectrometry-based competitive profiling assay[42] coupled with the method of stable isotope labelling of amino acids in culture (SILAC)[43]. […]
# visualization were performed as described above. Images were quantified with ImageJ and kinetics values were calculated using GraphPad Prism (V6.03). […]
compound,measurement,value
C=C(C)C(=O)O[C@H]1CC2=C[C@@H](C/C(C)=C/[C@H]3OC(=O)C(=C)[C@H]13)OC2=O [deoxyelephantopin],competition of probe 24c labelling (11 proteins),> 70%
